Patent US4690937A, “Anti-hypertensive agents” (University of Miami, priority 1979, dated 1987)
Where two headings read alike, the source gives them in different places. Blank lines part the entries; values can stand above or below the compound they belong to. Residues, ends and D or L forms follow the SMILES beside them. *: point of attachment. Bz = O=C(c1ccccc1)*

Legend:
[1] = system: mean arterial blood pressure response to angiotensin I; test: Intravenous effectiveness: blood pressure response to angiotensin I in anesthetized rats; type: in vivo; conditions: rat, in words
Experimental: (§1) Rats (210-290 g body weight) were fasted overnight and then anesthetized with intraperitoneal pentobarbital, 50-60 mg/kg. Tracheostomy was performed and the animals were ventilated mechanically. A cannula was inserted into a femoral vein for injection of angiotensin I, and a second cannula was inserted into a common carotid artery for direct measurement of arterial blood pressure. Heparin, 1,000 units, was injected via the femoral vein to prevent coagulation. Blood pressure was measured with a pressure transducer connected to a polygraph. The rats were injected with […] of angiotensin I in 20μl of 0.9 g % NaCl; an amount of angiotensin I sufficient to raise mean arterial blood pressure by 25 mm Hg. After the responsiveness of a given rat to angiotensin I was established, the named compound at 20 μmol/kg (drug dissolved in 0.15 ml of H2 O plus 10μl of 1 N NaHCO3), was given via a stomach tube. At timed intervals, the effects of 400 ng/kg of angiotensin I on mean arterial blood pressure were tested. Results are shown below:
Anesthetized rats were prepared as described in Example 18. The named compound was administered intravenously via a femoral vein, at the stated dose, in 15 μl of 0.01 N sodium bicarbonate. […] The time required for recovery of one half the lost responsiveness to angiotensin I, following injection of the named compound, is designated t1/2. […]

[2] = system: mean arterial blood pressure response to angiotensin I; test: Oral effectiveness: blood pressure response to angiotensin I in anesthetized rats; type: in vivo; conditions: rat, oral 20 μmol/kg, -5 min (pre-dose control, 25 mm Hg)
Experimental: as §1, with “tested.” for “tested. Results are shown below:”

ACE [3] = target: T1, ACE (Homo sapiens, UniProt P12821); test: ACE activity assay in vitro (I50, hydrolysis of [3H]-Benzoyl-GlyHisLeu); type: biochemical
T1 construct: same enzyme (human urinary ACE); from tissue; host or cells: human urine (purified as described by Ryan et al., Tissue and Cell 10, 555 (1978))
T1 sequence (P12821 30-1232 limits assumed): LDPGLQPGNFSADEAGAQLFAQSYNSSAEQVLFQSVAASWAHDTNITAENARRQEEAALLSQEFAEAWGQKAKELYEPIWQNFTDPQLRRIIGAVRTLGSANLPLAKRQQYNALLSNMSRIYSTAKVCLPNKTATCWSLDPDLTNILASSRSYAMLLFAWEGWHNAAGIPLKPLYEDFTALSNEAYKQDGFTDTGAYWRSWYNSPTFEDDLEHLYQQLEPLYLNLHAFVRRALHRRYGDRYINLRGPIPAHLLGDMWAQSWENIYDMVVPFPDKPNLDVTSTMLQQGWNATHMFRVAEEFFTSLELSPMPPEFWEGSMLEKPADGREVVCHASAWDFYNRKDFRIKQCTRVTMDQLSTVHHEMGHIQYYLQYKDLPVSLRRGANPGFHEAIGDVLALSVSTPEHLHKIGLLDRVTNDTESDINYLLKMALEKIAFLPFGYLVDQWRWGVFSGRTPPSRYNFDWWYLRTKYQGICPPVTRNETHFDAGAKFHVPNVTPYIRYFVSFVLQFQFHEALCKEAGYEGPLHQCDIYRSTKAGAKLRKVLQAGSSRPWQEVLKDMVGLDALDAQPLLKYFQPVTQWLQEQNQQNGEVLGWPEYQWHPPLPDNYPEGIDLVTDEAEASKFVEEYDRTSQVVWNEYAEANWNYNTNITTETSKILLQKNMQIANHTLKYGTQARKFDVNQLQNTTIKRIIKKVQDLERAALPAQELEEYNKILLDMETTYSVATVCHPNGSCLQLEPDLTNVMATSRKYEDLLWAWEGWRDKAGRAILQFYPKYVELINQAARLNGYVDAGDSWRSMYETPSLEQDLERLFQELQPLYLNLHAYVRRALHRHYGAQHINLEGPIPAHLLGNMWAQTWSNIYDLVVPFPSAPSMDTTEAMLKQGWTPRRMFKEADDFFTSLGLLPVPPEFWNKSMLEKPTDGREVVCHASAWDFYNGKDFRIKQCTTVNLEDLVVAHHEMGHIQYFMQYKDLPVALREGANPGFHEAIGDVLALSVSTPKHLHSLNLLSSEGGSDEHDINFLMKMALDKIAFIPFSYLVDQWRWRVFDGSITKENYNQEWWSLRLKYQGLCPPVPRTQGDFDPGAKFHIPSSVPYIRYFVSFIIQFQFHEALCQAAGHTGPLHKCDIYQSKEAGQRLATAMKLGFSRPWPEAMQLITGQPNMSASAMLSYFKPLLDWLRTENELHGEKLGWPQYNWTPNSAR
Experimental: These factors include the source of enzyme, its purity, the substrate used and its concentration, and the composition of the assay buffer. All I50 data reported herein have been performed with the same assay system and same enzyme (human urinary ACE) and with an approximately 1/2 Km level of substrate and are therefore internaly consistent.
To initiate the assay, 40 μl of enzyme and 10 μl of water or inhibitor dissolved in water were preincubated for five minutes at 37° C. […] To terminate the reaction, 1 ml of 0.1M HCl was added, following which 1 ml of ethyl acetate was added. The mixture was agitated on a rotary mixer and centrifuged briefly to separate the phases.
An aliquot, 500μl, of the ethyl acetate layer was transferred to a liquid scintillation vial containing 10 ml of Riafluor, trademark New England Nuclear Corporation, Boston, Mass. For determination of I50 values, enzyme activity in the presence of inhibitor at a series of different concentrations was compared to activity in the absence of inhibitor.

ACE [4] = target: T1, ACE; conditions: previously disclosed compounds of copending applications, read-out: I50, cited from earlier work
ACE [5] = conditions: disulfide formed on standing of aqueous solution; cited from earlier work

- IC50 (ACE [3]; ACE purified from human urine, pH 8.0, 37° C., Benzoyl-GlyHisLeu 1×10^-4 M): 9.4 nM
Compound: C[C@H](CSC(=O)[C@H](Cc1c[nH]c2ccccc12)NC(=O)c1ccccc1)C(=O)N1CCC[C@H]1C(=O)O [N^α -[3-(Nα-benzoyl-L-tryptophylthio)-2-D-methylpropanoyl]-L-proline]
- Response to intravenous administration (responsiveness to Angiotensin I, 400 ng/kg) [1]: rapid decrease in responsiveness to Angiotensin I, 400 ng/kg, followed by a gradual recovery to the pretreatment level of responsiveness
- Blood Pressure Response to 400 ng/kg of Angiotensin I [2]: 100 % of Control

Compound: CC(C)C[C@H](NC(=O)[C@H](Cc1cnc[nH]1)NC(=O)CNC(=O)c1ccccc1)C(=O)O [Benzoyl-GlyHisLeu, reference compound] (Bz-Gly-His-Leu-OH)
- Km (ACE [3]; substrate Benzoyl-GlyHisLeu, 0.05M Hepes pH 8.0, 0.1M NaCl, 0.75M Na2 SO4): ~200 µM

Compound: CC(SC(=O)[C@H](Cc1ccccc1)NC(=O)c1ccccc1)C(=O)N1CC=C[C@H]1C(=O)O (stereo partly drawn) [N-(2-benzoylphenylalanylthiopropanoyl)-L-3,4-dehydroproline]
- IC50 (ACE [4]; for racemic compound): 3 nM

Compound: C[C@H](CSSC[C@@H](C)C(=O)N1CCC[C@H]1C(=O)O)C(=O)N1CCC[C@H]1C(=O)O [disulfide]
- ACE inhibition by the disulfide dimer (ACE [5]): largely inactive as an inhibitor

Compound: O=C(N[C@@H](Cc1ccccc1)C(=O)SCCC(=O)N1CCC[C@H]1C(=O)O)c1ccccc1
- IC50 (ACE [4]; approximate): ~700 nM
